From ChEMBL document CHEMBL1201862, “PubChem BioAssay data set” (2004)
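1) Cells in 96-well plates. 2) Compound, 48 h, 5 concentrations. 3) Linear interpolation between surrounding doses. 4) Unreached endpoint = highest concentration. Abbreviation: GI50, concentration required for 50% inhibition of growth.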 Active and inactive are the calls of the source. Cut-off read from the data, not from the text of the source: active = GI50 up to about 1.1 µM and inactive = higher. Where a SMILES comes first, the peptide text is derived from it. Bridges are numbered along the chain shown (N, C = ends). [ ]: non-standard residue; d: D form. The star is where a group is joined. ξ: configuration not given here. X28 = O=C(/C=C/C=C/C=C/C=C/C=C/C(=O)*)NC1=C(O)CCC1=O; NMeA = CN[C@@H](C)C(=O)O; ξF = NC(Cc1ccccc1)C(=O)O; ξA = CC(N)C(=O)O

Experiments:
Assay in all cases: growth of human tumour cells (NCI), 48 h
A549 = system: A549
CAKI-1 = system: CAKI-1
DU-145 = system: DU-145
HCT-116 = system: HCT-116
HCT-15 = system: HCT-15
HL-60 = system: HL-60
MCF7 = system: MCF7
MDA-MB-435 = system: MDA-MB-435
Malme-3M = system: Malme-3M
NCI-H23 = system: NCI-H23
OVCAR-5 = system: OVCAR-5
RXF 393 = system: RXF 393
SF-295 = system: SF-295
SF-539 = system: SF-539
SK-MEL-28 = system: SK-MEL-28
SK-OV-3 = system: SK-OV-3
SNB-75 = system: SNB-75
SW-620 = system: SW-620
A498 = system: A498

SMILES | GI50 (A549) | GI50 (CAKI-1) | GI50 (DU-145) | GI50 (HCT-116) | GI50 (HCT-15) | GI50 (HL-60) | GI50 (MCF7) | GI50 (MDA-MB-435) | GI50 (Malme-3M) | GI50 (NCI-H23) | GI50 (OVCAR-5) | GI50 (RXF 393) | GI50 (SF-295) | GI50 (SF-539) | GI50 (SK-MEL-28) | GI50 (SK-OV-3) | GI50 (SNB-75) | GI50 (SW-620) | GI50 (A498)
CC1NC(=O)[C@H](C)N(C)C(=O)[C@@H]2CCCN2C(=O)[C@@H](NC(=O)C(Cc2ccccc2)NC(=O)/C=C/C=C/C=C/C=C/C=C/C(=O)NC2=C(O)CCC2=O)COC(=O)[C@@H]2CCCN2C1=O (stereo partly drawn) (X28-[ξF]SP[NMeA][ξA]P; ester 2-C) | > 100 µM (inactive) | 40.4 µM (inactive) | 89.3 µM (inactive) | > 100 µM (inactive) | > 100 µM | > 100 µM (inactive) | > 100 µM (inactive) | > 100 µM (inactive) | > 100 µM (inactive) | > 100 µM (inactive) | > 100 µM (inactive) | 35.5 µM (inactive) | > 100 µM (inactive) | > 100 µM (inactive) | > 100 µM (inactive) | > 100 µM (inactive) | 64.3 µM (inactive) | > 100 µM (inactive) | –
Clc1ccc(-c2c3nc(c(-c4ccc(Cl)cc4)c4ccc([nH]4)c(-c4ccc(Cl)cc4)c4nc(c(-c5ccc(Cl)cc5)c5ccc2[nH]5)C=C4)C=C3)cc1 | > 100 µM (inactive) | > 100 µM (inactive) | – | – | > 100 µM | > 100 µM (inactive) | > 100 µM (inactive) | > 100 µM (inactive) | 70.8 µM (inactive) | > 100 µM (inactive) | > 100 µM (inactive) | – | > 100 µM (inactive) | > 100 µM (inactive) | > 100 µM (inactive) | > 100 µM (inactive) | 20.8 µM (inactive) | > 100 µM (inactive) | –
O=C1NCC2(CCN(Cc3ccccc3)CC2)N1 | > 100 µM (inactive) | > 100 µM (inactive) | > 100 µM (inactive) | > 100 µM (inactive) | > 100 µM | > 100 µM (inactive) | > 100 µM (inactive) | > 100 µM (inactive) | > 100 µM (inactive) | > 100 µM (inactive) | > 100 µM (inactive) | > 100 µM (inactive) | > 100 µM (inactive) | > 100 µM (inactive) | > 100 µM (inactive) | > 100 µM (inactive) | > 100 µM (inactive) | > 100 µM (inactive) | –
Fc1cc(-c2cc(-c3ccccc3)n[nH]2)c(Cl)cc1Cl | > 100 µM (inactive) | > 100 µM (inactive) | > 100 µM (inactive) | > 100 µM (inactive) | > 100 µM | 28.9 µM (inactive) | – | > 100 µM (inactive) | > 100 µM (inactive) | > 100 µM (inactive) | > 100 µM (inactive) | > 100 µM (inactive) | > 100 µM (inactive) | 23 µM (inactive) | > 100 µM (inactive) | > 100 µM (inactive) | > 100 µM (inactive) | > 100 µM (inactive) | –
Cc1oc2c(c1C)S(=O)(=O)C(C#N)=C(N(C)C)N2 | > 100 µM (inactive) | > 100 µM (inactive) | > 100 µM (inactive) | > 100 µM (inactive) | > 100 µM | – | > 100 µM (inactive) | > 100 µM (inactive) | > 100 µM (inactive) | > 100 µM (inactive) | > 100 µM (inactive) | – | > 100 µM (inactive) | > 100 µM (inactive) | > 100 µM (inactive) | > 100 µM (inactive) | > 100 µM (inactive) | > 100 µM (inactive) | > 100 µM (inactive)
CC(C1CCCC1=O)C1CCCC1=O (stereo not drawn) | > 100 µM (inactive) | > 100 µM (inactive) | > 100 µM (inactive) | > 100 µM (inactive) | > 100 µM | > 100 µM (inactive) | > 100 µM (inactive) | – | > 100 µM (inactive) | > 100 µM (inactive) | > 100 µM (inactive) | > 100 µM (inactive) | > 100 µM (inactive) | > 100 µM (inactive) | > 100 µM (inactive) | > 100 µM (inactive) | > 100 µM (inactive) | > 100 µM (inactive) | –
O=C1/C(=C/c2cccc(Br)c2)CCc2ccccc21 | 16.4 µM (inactive) | 16 µM (inactive) | 17.2 µM (inactive) | 7.69 µM (inactive) | 11.5 µM | 5.68 µM (inactive) | 3.75 µM (inactive) | 12.4 µM (inactive) | 12.4 µM (inactive) | 15.8 µM (inactive) | 14.9 µM (inactive) | – | 15.2 µM (inactive) | 17.5 µM (inactive) | 18.4 µM (inactive) | 22.8 µM (inactive) | 14.5 µM (inactive) | 5.51 µM (inactive) | –
Cc1ccc(C(=O)N/N=C(\N=N\c2ccccc2C(=O)O)c2ccc(N(C)C)cc2)cc1 | 98.2 µM (inactive) | > 100 µM (inactive) | > 10 µM (inactive) | > 100 µM (inactive) | 64.7 µM | 53.5 µM (inactive) | > 100 µM (inactive) | 22.9 µM (inactive) | – | > 100 µM (inactive) | > 100 µM (inactive) | – | 41.6 µM (inactive) | > 100 µM (inactive) | > 100 µM (inactive) | – | – | > 100 µM (inactive) | –
